Data from patent publication US9868772B2 (INDIANA UNIVERSITY RESEARCH AND TECHNOLOGY CORPORATION, priority 2012, dated 2018).
Numbered stars: 1 amine (or outer) side, 2 acyl side, 3 side chain; on linkers, the order of the positions; unused ones are H or OH. Square brackets hold non-standard residues; d marks the D form. Side chains are listed from the residue outwards. Peptide text beside a SMILES is read from it. * marks the point of attachment. γGlu = O=C(O)[C@H](CCC(=O)[*:2])N[*:1]; Palmitoyl = CCCCCCCCCCCCCCCC(=O)*; 2Thi = N[C@@H](Cc1cccs1)C(=O)O

Tests used:
Assay in all cases: cAMP induction, firefly luciferase reporter assay in HEK293 cells co-transfected with receptor
Assay type in all cases: cell-based
[1] = molecular target: T1, GIP receptor (Homo sapiens, UniProt P48546)
T1 construct: expressed in transfected cells; host or cells: HEK293
T1 sequence (P48546 22-466): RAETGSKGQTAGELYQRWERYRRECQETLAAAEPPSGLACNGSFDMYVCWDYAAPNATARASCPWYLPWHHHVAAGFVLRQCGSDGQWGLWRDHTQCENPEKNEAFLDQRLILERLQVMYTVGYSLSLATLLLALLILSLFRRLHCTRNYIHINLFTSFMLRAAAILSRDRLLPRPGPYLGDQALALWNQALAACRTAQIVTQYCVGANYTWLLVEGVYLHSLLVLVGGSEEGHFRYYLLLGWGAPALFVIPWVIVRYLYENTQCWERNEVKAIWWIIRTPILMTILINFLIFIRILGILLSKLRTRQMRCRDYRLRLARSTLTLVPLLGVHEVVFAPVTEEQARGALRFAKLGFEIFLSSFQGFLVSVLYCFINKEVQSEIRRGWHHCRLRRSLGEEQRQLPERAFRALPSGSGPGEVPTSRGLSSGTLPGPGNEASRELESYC
Description: (§1) The ability of glucagon analogs to induce cAMP was measured in a firefly luciferase-based reporter assay. […] At the end of the incubation 100 microliters of LucLite luminescence substrate reagent (Perkin-Elmer, Wellesley, Mass.) were added to each well. […] Effective 50% concentrations were calculated by using Origin software (OriginLab, Northampton, Mass.

[2] = molecular target: T2, GLP-1 receptor (Homo sapiens, UniProt P43220)
T2 construct: expressed in transfected cells; host or cells: HEK293
T2 sequence (P43220 24-463): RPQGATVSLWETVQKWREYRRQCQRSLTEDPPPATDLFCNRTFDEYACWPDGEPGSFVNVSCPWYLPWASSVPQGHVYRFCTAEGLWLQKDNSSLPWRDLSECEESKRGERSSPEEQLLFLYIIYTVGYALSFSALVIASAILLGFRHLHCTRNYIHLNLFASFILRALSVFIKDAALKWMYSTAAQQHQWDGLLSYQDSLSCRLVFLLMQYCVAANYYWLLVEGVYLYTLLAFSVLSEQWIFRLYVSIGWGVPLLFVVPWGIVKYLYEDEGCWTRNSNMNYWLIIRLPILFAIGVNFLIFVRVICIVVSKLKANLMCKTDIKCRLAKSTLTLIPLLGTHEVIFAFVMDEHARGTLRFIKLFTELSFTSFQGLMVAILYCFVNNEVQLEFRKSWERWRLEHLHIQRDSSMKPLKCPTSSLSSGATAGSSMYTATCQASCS
Description: as §1

[3] = molecular target: T3, glucagon receptor (Homo sapiens, UniProt P47871)
T3 construct: expressed in transfected cells; host or cells: HEK293
T3 sequence (P47871 26-477): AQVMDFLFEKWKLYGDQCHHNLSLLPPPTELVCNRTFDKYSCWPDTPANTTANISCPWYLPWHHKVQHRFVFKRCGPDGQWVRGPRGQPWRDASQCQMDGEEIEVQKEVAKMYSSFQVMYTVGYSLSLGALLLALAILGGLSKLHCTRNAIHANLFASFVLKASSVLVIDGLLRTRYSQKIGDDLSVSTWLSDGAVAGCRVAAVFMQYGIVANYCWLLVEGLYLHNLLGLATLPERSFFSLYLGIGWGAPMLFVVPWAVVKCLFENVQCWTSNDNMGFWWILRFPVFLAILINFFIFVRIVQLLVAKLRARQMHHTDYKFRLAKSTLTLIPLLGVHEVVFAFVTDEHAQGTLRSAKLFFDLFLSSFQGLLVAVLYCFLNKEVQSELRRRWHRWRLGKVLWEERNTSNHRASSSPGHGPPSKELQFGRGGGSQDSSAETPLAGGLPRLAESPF
Description: as §1

[4] = Table 1, analogs of SEQ ID NO: 37
[5] = Table 2, analogs of SEQ ID NO: 10
[6] = Table 3, analogs of SEQ ID NO: 12

Structure (SMILES)	EC50 [1, 4]	EC50 [2, 4]	EC50 [3, 4]	EC50 [1, 5]	EC50 [2, 5]	EC50 [3, 5]	further results
CCCCCCCCCCCCCCCC(=O)N[C@@H](CCC(=O)NCCCC[C@H](NC(=O)[C@H](CC(=O)O)NC(=O)[C@H](CO)NC(=O)[C@@H](NC(=O)[C@H](Cc1ccccc1)NC(=O)[C@@H](NC(=O)CNC(=O)[C@H](CCC(N)=O)NC(=O)CNC(=O)[C@@H](Cc1ccc(O)cc1)NC(C)=O)[C@@H](C)O)[C@@H](C)O)C(=O)N[C@@H](CO)C(=O)N[C@@H](CCCCN)C(=O)N[C@@H](Cc1ccc(O)cc1)C(=O)N[C@@H](CC(C)C)C(=O)N[C@@H](CC(=O)O)C(=O)N[C@@H](CCC(=O)O)C(=O)N[C@@H](CCCNC(=N)N)C(=O)N[C@@H](C)C(=O)N[C@@H](C)C(=O)N[C@@H](CCC(N)=O)C(=O)N[C@@H](CC(=O)O)C(=O)N[C@@H](Cc1ccccc1)C(=O)N[C@H](C(=O)N[C@@H](CCC(N)=O)C(=O)N[C@@H](Cc1c[nH]c2ccccc12)C(=O)N[C@@H](CC(C)C)C(=O)N[C@@H](CC(C)C)C(=O)N[C@@H](CCC(=O)O)C(=O)NCC(=O)NCC(=O)N1CCC[C@H]1C(=O)N[C@@H](CO)C(=O)N[C@@H](CO)C(=O)NCC(=O)N[C@@H](C)C(=O)N1CCC[C@H]1C(=O)N1CCC[C@H]1C(=O)N1CCC[C@H]1C(=O)N[C@@H](CO)C(N)=O)C(C)C)C(=O)O [compound 14] (Ac-[dY]GQGTFTSDK([γGlu-Palmitoyl])SKYLDERAAQDFVQWLLEGGPSSGAPPPS-NH2)	5 pM	22 pM	5 pM	–	–	–	–
CCCCCCCCCCCCCCCC(=O)N[C@@H](CCC(=O)NCCCC[C@H](NC(=O)[C@H](CC(=O)O)NC(=O)[C@H](CO)NC(=O)[C@@H](NC(=O)[C@H](Cc1ccccc1)NC(=O)[C@@H](NC(=O)CNC(=O)[C@H](CCC(N)=O)NC(=O)[C@@H]1CCCN1C(=O)[C@H](N)Cc1c[nH]cn1)[C@@H](C)O)[C@@H](C)O)C(=O)N[C@@H](CO)C(=O)N[C@@H](CCCCN)C(=O)N[C@@H](Cc1ccc(O)cc1)C(=O)N[C@@H](CC(C)C)C(=O)N[C@@H](CC(=O)O)C(=O)N[C@@H](CCC(=O)O)C(=O)N[C@@H](CCCNC(=N)N)C(=O)N[C@@H](C)C(=O)N[C@@H](C)C(=O)N[C@@H](CCC(N)=O)C(=O)N[C@@H](CC(=O)O)C(=O)N[C@@H](Cc1ccccc1)C(=O)N[C@H](C(=O)N[C@@H](CCC(N)=O)C(=O)N[C@@H](Cc1c[nH]c2ccccc12)C(=O)N[C@@H](CC(C)C)C(=O)N[C@@H](CC(C)C)C(=O)N[C@@H](CCC(=O)O)C(=O)NCC(=O)NCC(=O)N1CCC[C@H]1C(=O)N[C@@H](CO)C(=O)N[C@@H](CO)C(=O)NCC(=O)N[C@@H](C)C(=O)N1CCC[C@H]1C(=O)N1CCC[C@H]1C(=O)N1CCC[C@H]1C(=O)N[C@@H](CO)C(N)=O)C(C)C)C(=O)O [compound 27] (H-[dH]PQGTFTSDK([γGlu-Palmitoyl])SKYLDERAAQDFVQWLLEGGPSSGAPPPS-NH2; N-terminus assumed)	80 pM	3 pM	34 pM	–	–	–	–
CCCCCCCCCCCCCCCC(=O)N[C@@H](CCC(=O)NCCCC[C@H](NC(=O)[C@H](CC(=O)O)NC(=O)[C@H](CO)NC(=O)[C@@H](NC(=O)[C@H](Cc1ccccc1)NC(=O)[C@@H](NC(=O)CNC(=O)[C@H](CC(C)C)NC(=O)[C@H](C)NC(=O)[C@@H](Cc1ccc(O)cc1)NC(C)=O)[C@@H](C)O)[C@@H](C)O)C(=O)N[C@@H](CO)C(=O)N[C@@H](CCCCN)C(=O)N[C@@H](Cc1ccc(O)cc1)C(=O)N[C@@H](CC(C)C)C(=O)N[C@@H](CC(=O)O)C(=O)N[C@@H](CCC(=O)O)C(=O)N[C@@H](CCCNC(=N)N)C(=O)N[C@@H](C)C(=O)N[C@@H](C)C(=O)N[C@@H](CCC(N)=O)C(=O)N[C@@H](CC(=O)O)C(=O)N[C@@H](Cc1ccccc1)C(=O)N[C@H](C(=O)N[C@@H](CCC(N)=O)C(=O)N[C@@H](Cc1c[nH]c2ccccc12)C(=O)N[C@@H](CC(C)C)C(=O)N[C@@H](CC(C)C)C(=O)N[C@@H](CCC(=O)O)C(=O)NCC(=O)NCC(=O)N1CCC[C@H]1C(=O)N[C@@H](CO)C(=O)N[C@@H](CO)C(=O)NCC(=O)N[C@@H](C)C(=O)N1CCC[C@H]1C(=O)N1CCC[C@H]1C(=O)N1CCC[C@H]1C(=O)N[C@@H](CO)C(N)=O)C(C)C)C(=O)O [compound 142] (Ac-[dY]ALGTFTSDK([γGlu-Palmitoyl])SKYLDERAAQDFVQWLLEGGPSSGAPPPS-NH2)	–	–	–	2 pM	5 pM	103 pM	–
CCCCCCCCCCCCCCCC(=O)N[C@@H](CCC(=O)NCCCC[C@H](NC(=O)[C@H](CC(=O)O)NC(=O)[C@H](CO)NC(=O)[C@@H](NC(=O)[C@H](Cc1ccccc1)NC(=O)[C@@H](NC(=O)CNC(=O)[C@H](CCC(=O)O)NC(=O)[C@H](C)NC(=O)[C@@H](Cc1c[nH]cn1)NC(C)=O)[C@@H](C)O)[C@@H](C)O)C(=O)N[C@@H](CO)C(=O)N[C@@H](CCCCN)C(=O)N[C@@H](Cc1ccc(O)cc1)C(=O)N[C@@H](CC(C)C)C(=O)N[C@@H](CC(=O)O)C(=O)N[C@@H](CCC(=O)O)C(=O)N[C@@H](CCCNC(=N)N)C(=O)N[C@@H](C)C(=O)N[C@@H](C)C(=O)N[C@@H](CCC(N)=O)C(=O)N[C@@H](CC(=O)O)C(=O)N[C@@H](Cc1ccccc1)C(=O)N[C@H](C(=O)N[C@@H](CCC(N)=O)C(=O)N[C@@H](Cc1c[nH]c2ccccc12)C(=O)N[C@@H](CC(C)C)C(=O)N[C@@H](CC(C)C)C(=O)N[C@@H](CCC(=O)O)C(=O)NCC(=O)NCC(=O)N1CCC[C@H]1C(=O)N[C@@H](CO)C(=O)N[C@@H](CO)C(=O)NCC(=O)N[C@@H](C)C(=O)N1CCC[C@H]1C(=O)N1CCC[C@H]1C(=O)N1CCC[C@H]1C(=O)N[C@@H](CO)C(N)=O)C(C)C)C(=O)O [compound 148]	–	–	–	7 pM	2 pM	178 pM	–
CCCCCCCCCCCCCCCC(=O)N[C@@H](CCC(=O)NCCCC[C@H](NC(=O)[C@H](CC(=O)O)NC(=O)[C@H](CO)NC(=O)[C@@H](NC(=O)[C@H](Cc1ccccc1)NC(=O)[C@@H](NC(=O)CNC(=O)[C@H](CCC(N)=O)NC(=O)[C@H](C)NC(=O)[C@@H](Cc1ccc(O)cc1)NC(C)=O)[C@@H](C)O)[C@@H](C)O)C(=O)N[C@@H](CO)C(=O)N[C@@H](CCCCN)C(=O)N[C@@H](Cc1ccc(O)cc1)C(=O)N[C@@H](CC(C)C)C(=O)N[C@@H](CC(=O)O)C(=O)N[C@@H](CCC(=O)O)C(=O)N[C@@H](CCCNC(=N)N)C(=O)N[C@@H](C)C(=O)N[C@@H](C)C(=O)N[C@@H](CCC(N)=O)C(=O)N[C@@H](CC(=O)O)C(=O)N[C@@H](Cc1ccccc1)C(=O)N[C@H](C(=O)N[C@@H](CCC(N)=O)C(=O)N[C@@H](Cc1c[nH]c2ccccc12)C(=O)N[C@@H](CC(C)C)C(=O)N[C@@H](CC(C)C)C(=O)N[C@@H](CC(=O)O)C(=O)N[C@@H](C)C(=O)NCC(=O)N1CCC[C@H]1C(=O)N[C@@H](CO)C(=O)N[C@@H](CO)C(=O)NCC(=O)N[C@@H](C)C(=O)N1CCC[C@H]1C(=O)N1CCC[C@H]1C(=O)N1CCC[C@H]1C(=O)N[C@@H](CO)C(N)=O)C(C)C)C(=O)O [compound 143] (Ac-[dY]AQGTFTSDK([γGlu-Palmitoyl])SKYLDERAAQDFVQWLLDAGPSSGAPPPS-NH2)	–	–	–	–	–	–	EC50 [1, 6]: 3 pM; EC50 [2, 6]: 3 pM; EC50 [3, 6]: 4 pM
CCCCCCCCCCCCCCCC(=O)N[C@@H](CCC(=O)NCCCC[C@H](NC(=O)[C@H](CC(=O)O)NC(=O)[C@H](CO)NC(=O)[C@@H](NC(=O)[C@H](Cc1ccccc1)NC(=O)[C@@H](NC(=O)CNC(=O)[C@H](CCC(N)=O)NC(=O)[C@@H]1CCCN1C(=O)[C@@H](N)Cc1cccs1)[C@@H](C)O)[C@@H](C)O)C(=O)N[C@@H](CO)C(=O)N[C@@H](CCCCN)C(=O)N[C@@H](Cc1ccc(O)cc1)C(=O)N[C@@H](CC(C)C)C(=O)N[C@@H](CC(=O)O)C(=O)N[C@@H](CCC(=O)O)C(=O)N[C@@H](CCCNC(=N)N)C(=O)N[C@@H](C)C(=O)N[C@@H](C)C(=O)N[C@@H](CCC(N)=O)C(=O)N[C@@H](CC(=O)O)C(=O)N[C@@H](Cc1ccccc1)C(=O)N[C@H](C(=O)N[C@@H](CCC(N)=O)C(=O)N[C@@H](Cc1c[nH]c2ccccc12)C(=O)N[C@@H](CC(C)C)C(=O)N[C@@H](CC(C)C)C(=O)N[C@@H](CCC(=O)O)C(=O)NCC(=O)NCC(=O)N1CCC[C@H]1C(=O)N[C@@H](CO)C(=O)N[C@@H](CO)C(=O)NCC(=O)N[C@@H](C)C(=O)N1CCC[C@H]1C(=O)N1CCC[C@H]1C(=O)N1CCC[C@H]1C(=O)N[C@@H](CO)C(N)=O)C(C)C)C(=O)O [compound 33] (H-[2Thi]PQGTFTSDK([γGlu-Palmitoyl])SKYLDERAAQDFVQWLLEGGPSSGAPPPS-NH2)	430 pM	5 pM	121 pM	–	–	–	–
